Results from patent US9334257B2, “Methods of purifying and identifying the presence of and levels of procyanidin oligomeric compounds” (The Hershey Company, priority 2012, dated 2016).

Test: Partition coefficient of cocoa procyanidin oligomers in the CPC biphasic solvent system
Format: physicochemical
Conditions: typical CPC runs as described; biphasic ethyl acetate:ethanol:water (6:1:5), ascending mode; unfermented cocoa bean sample of 8.5 grams
Protocol: A sample is mixed with water and prepared for FCPC with a KROMATON device and rotor. Columns are prepared with biphasic solvent mixture of ethyl acetate:ethanol:water at 6:1:5 ratio. The solvent used can be modified from this ratio by calculating the partition coefficients and comparing to that of the ethyl acetate:ethanol:water example. The FCPC is run in ascending mode for purifying procyanidins, so that the mobile phase is the upper phase in the resting columns.
These quantities are isolated from an unfermented cocoa bean sample of 8.5 grams. In comparison, with a diol HPLC column, 150×30 mm, injecting about 270 mg of the same sample per run yields only about 25 mg of DP2-4 and less than 1 mg of DP11-12. Clearly, the CPC methods of the invention provide commercially viable methods for producing usable quantities of a range of procyanidin oligomers, especially from cocoa sources.
For `Oc1cc(O)c2c(c1)O[C@H](c1ccc(O)c(O)c1)[C@H](O)C2` [epicatechin], the Partition coefficient was 0.84.
In the case of `Oc1cc(O)c2c(c1)O[C@H](c1ccc(O)c(O)c1)[C@H](O)[C@H]2c1c(O)cc(O)c2c1O[C@H](c1ccc(O)c(O)c1)[C@H](O)C2` [procyanidin B2], the Partition coefficient was 0.63.
`Oc1cc(O)c2c(c1)O[C@H](c1ccc(O)c(O)c1)[C@H](O)[C@H]2c1c(O)cc2c(c1O)C[C@@H](O)[C@@H](c1ccc(O)c(O)c1)O2` [procyanidin B5] showed a Partition coefficient of 0.94.
